Measurements reported in article PMC11369081, “Molecular mechanism of prolactin-releasing peptide recognition and signaling via its G protein-coupled receptor” (Cell Discovery, 2024).
Peptide text beside a SMILES is read from it.

Key:
Format in all cases: cell-based
PrRPR V208A = molecular target: T1, PrRPR V208A (Homo sapiens, UniProt P49683, V208A); experiment: BRET2 Gq dissociation, V208A; settings: V208A (ECL2), Gq-coupling, AD293 cells; mean ± S.E.M., n = 3; P 0.0347 vs WT; read-out: BRET2 pEC50 (converted)
T1 construct: expressed in transfected cells; host or cells: AD293 cells
T1 sequence (P49683 whole entry V208A): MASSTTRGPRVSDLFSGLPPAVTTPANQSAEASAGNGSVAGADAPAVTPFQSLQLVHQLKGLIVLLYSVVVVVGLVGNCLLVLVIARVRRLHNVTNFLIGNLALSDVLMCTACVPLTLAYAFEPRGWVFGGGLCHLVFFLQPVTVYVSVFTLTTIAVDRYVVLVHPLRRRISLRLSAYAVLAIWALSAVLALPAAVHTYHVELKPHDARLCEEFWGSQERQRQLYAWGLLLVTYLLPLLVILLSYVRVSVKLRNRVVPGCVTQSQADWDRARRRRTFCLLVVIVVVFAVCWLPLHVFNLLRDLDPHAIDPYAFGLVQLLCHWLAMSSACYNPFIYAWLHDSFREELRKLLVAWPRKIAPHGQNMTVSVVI
Description: (§1) AD293 cells (Agilent) were propagated in Dulbecco’s Modified Eagle Medium (DMEM, Thermo Fisher Scientific), enriched with 10% fetal bovine serum (FBS, Thermo Fisher Scientific), and maintained at 37 °C in a 5% CO2 environment. Cells were then seeded in 6-well dishes at a density of 130,000–150,000 cells per mL and allowed to incubate overnight. On the next day, cells were transfected with plasmids at a 1:1:1:1 ratio for receptor:Gα-RLuc8:Gβ:Gγ-GFP2[52]. PEI MAX 40 K (BIOHUB) was utilized to form complex with the plasmids at a ratio of 3 µL PEI per µg of plasmids, in OptiMEM (Gibco-Thermo Fisher Scientific) at a concentration of 10 ng plasmids per µL OptiMEM. After 24 h of incubation, the culture was harvested by centrifugation with PBS. The cell suspension was then allocated into a white 384-well plate at a volume of 30 µL per well, followed by the addition of 10 µL of freshly prepared 50 µM coelenterazine 400a (Yeasen). […] Plates were subsequently read in a BioTek Synergy H1 microplate reader (BioTek) equipped with 395 nm (RLuc8-coelenterazine 400a) and 510 nm (GFP2) emission filters. BRET2 ratios were calculated as the ratio of the GFP2 emission to RLuc8 emission. […]
(§2) Supplementary Fig. S4 | Effects of mutations in the ligand-binding pocket and G protein intereface of Gq coupled PrRPR by BRET2 assay. […] BRET2 assay signals were measured after stimulation with PrRP20. […]

PrRPR N298A = molecular target: T2, PrRPR N298A (Homo sapiens, UniProt P49683, N298A); experiment: BRET2 Gi dissociation, N298A; settings: N298A (6.55), Gi-coupling, AD293 cells; mean ± S.E.M., n = 3; P 0.0022 vs WT; read-out: BRET2 pEC50 (converted)
T2 construct: Flag; expressed in transfected cells; host or cells: AD293 cells
T2 sequence (P49683 whole entry N298A): as the sequence (P49683 whole entry V208A) above, with A208V, N298A counted along it
Description: (§3) AD293 cells (Agilent) were propagated in Dulbecco’s Modified Eagle Medium (DMEM, Thermo Fisher Scientific), enriched with 10% fetal bovine serum (FBS, Thermo Fisher Scientific), and maintained at 37 °C in a 5% CO2 environment. Cells were then seeded in 6-well dishes at a density of 130,000–150,000 cells per mL and allowed to incubate overnight. On the next day, cells were transfected with plasmids at a 1:1:1:1 ratio for receptor:Gα-RLuc8:Gβ:Gγ-GFP2[52]. PEI MAX 40 K (BIOHUB) was utilized to form complex with the plasmids at a ratio of 3 µL PEI per µg of plasmids, in OptiMEM (Gibco-Thermo Fisher Scientific) at a concentration of 10 ng plasmids per µL OptiMEM. After 24 h of incubation, the culture was harvested by centrifugation with PBS. The cell suspension was then allocated into a white 384-well plate at a volume of 30 µL per well, followed by the addition of 10 µL of freshly prepared 50 µM coelenterazine 400a (Yeasen). Following a 15-min equilibration period, cells were treated with 10 µL of ligand for an additional 5 min. Plates were subsequently read in a BioTek Synergy H1 microplate reader (BioTek) equipped with 395 nm (RLuc8-coelenterazine 400a) and 510 nm (GFP2) emission filters. BRET2 ratios were calculated as the ratio of the GFP2 emission to RLuc8 emission. Data were normalized to the baseline response of the ligand. […]

PrRPR L294A = molecular target: T3, PrRPR L294A (Homo sapiens, UniProt P49683, L294A); experiment: BRET2 Gi dissociation, L294A; settings: L294A (6.51), Gi-coupling, AD293 cells; mean ± S.E.M., n = 3; P 0.2845 vs WT; read-out: BRET2 pEC50 (converted)
T3 construct: Flag; expressed in transfected cells; host or cells: AD293 cells
T3 sequence (P49683 whole entry L294A): as the sequence (P49683 whole entry V208A) above, with A208V, L294A counted along it
Description: as §3

PrRPR L229A = molecular target: T4, PrRPR L229A (Homo sapiens, UniProt P49683, L229A); experiment: BRET2 Gq dissociation, L229A; settings: L229A (5.42), Gq-coupling, AD293 cells; mean ± S.E.M., n = 3; P <0.0001 vs WT; read-out: BRET2 pEC50 (converted)
T4 construct: Flag; expressed in transfected cells; host or cells: AD293 cells
T4 sequence (P49683 whole entry L229A): as the sequence (P49683 whole entry V208A) above, with A208V, L229A counted along it
Description: as §1, §2

PrRPR Q317A = molecular target: T5, PrRPR Q317A (Homo sapiens, UniProt P49683, Q317A); experiment: BRET2 Gi dissociation, Q317A; settings: Q317A (7.35), Gi-coupling, AD293 cells; mean ± S.E.M., n = 3; P <0.0001 vs WT; read-out: BRET2 pEC50 (converted)
T5 construct: Flag; expressed in transfected cells; host or cells: AD293 cells
T5 sequence (P49683 whole entry Q317A): as the sequence (P49683 whole entry V208A) above, with A208V, Q317A counted along it
Description: as §3

PrRPR H295A = molecular target: T6, PrRPR H295A (Homo sapiens, UniProt P49683, H295A); experiment: BRET2 Gq dissociation, H295A; settings: H295A (6.52), Gq-coupling, AD293 cells; mean ± S.E.M., n = 3; P <0.0001 vs WT; read-out: BRET2 pEC50 (converted)
T6 construct: Flag; expressed in transfected cells; host or cells: AD293 cells
T6 sequence (P49683 whole entry H295A): as the sequence (P49683 whole entry V208A) above, with A208V, H295A counted along it
Description: as §1, §2

PrRPR E213A = molecular target: T7, PrRPR E213A (Homo sapiens, UniProt P49683, E213A); experiment: BRET2 Gq dissociation, E213A; settings: E213A (45.52), Gq-coupling, AD293 cells; mean ± S.E.M., n = 3; P <0.0001 vs WT; read-out: BRET2 pEC50 (converted)
T7 construct: expressed in transfected cells; host or cells: AD293 cells
T7 sequence (P49683 whole entry E213A): as the sequence (P49683 whole entry V208A) above, with A208V, E213A counted along it
Description: as §1, §2

PrRPR C113A = molecular target: T8, PrRPR C113A (Homo sapiens, UniProt P49683, C113A); experiment: BRET2 Gq dissociation, C113A; settings: C113A (2.57), Gq-coupling, AD293 cells; mean ± S.E.M., n = 3; P 0.0007 vs WT; read-out: BRET2 pEC50 (converted)
T8 construct: expressed in transfected cells; host or cells: AD293 cells
T8 sequence (P49683 whole entry C113A): as the sequence (P49683 whole entry V208A) above, with C113A, A208V counted along it
Description: as §1, §2

PrRPR W127A = molecular target: T9, PrRPR W127A (Homo sapiens, UniProt P49683, W127A); experiment: BRET2 Gq dissociation, W127A; settings: W127A (23.50), Gq-coupling, AD293 cells; mean ± S.E.M., n = 3; P <0.0001 vs WT; read-out: BRET2 pEC50 (converted)
T9 construct: expressed in transfected cells; host or cells: AD293 cells
T9 sequence (P49683 whole entry W127A): as the sequence (P49683 whole entry V208A) above, with W127A, A208V counted along it
Description: as §1, §2

PrRPR WT = molecular target: T10, PrRPR WT (Homo sapiens, UniProt P49683); experiment: BRET2 Gq dissociation, WT; settings: WT (reference for normalisation), Gq-coupling, AD293 cells; n = 3
T10 construct: expressed in transfected cells; host or cells: AD293 cells
T10 sequence (P49683 1-370): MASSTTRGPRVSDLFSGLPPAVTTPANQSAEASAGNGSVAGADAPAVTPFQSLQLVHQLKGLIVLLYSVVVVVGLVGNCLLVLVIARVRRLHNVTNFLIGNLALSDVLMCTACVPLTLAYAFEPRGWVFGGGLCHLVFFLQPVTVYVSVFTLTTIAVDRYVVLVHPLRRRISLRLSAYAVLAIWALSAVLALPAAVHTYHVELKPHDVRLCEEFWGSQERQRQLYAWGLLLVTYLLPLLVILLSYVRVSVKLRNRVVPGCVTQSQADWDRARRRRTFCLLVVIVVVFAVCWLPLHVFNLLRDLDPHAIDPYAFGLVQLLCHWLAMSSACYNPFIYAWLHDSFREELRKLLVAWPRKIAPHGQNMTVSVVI
Description: as §1, §2

EC50 (PrRPR V208A): 2.45 nM
EC50 (PrRPR N298A): 6.31 nM
EC50 (PrRPR L294A): 3.72 nM
EC50 (PrRPR L229A): 20.4 nM
EC50 (PrRPR Q317A): 4170 nM
EC50 (PrRPR H295A): 4.79 nM
EC50 (PrRPR E213A): 282 nM
EC50 (PrRPR C113A): 3.39 nM
EC50 (PrRPR W127A): 240 nM
BRET2 span (PrRPR WT): 100.00 %WT
SMILES: CC[C@H](C)[C@H](NC(=O)CNC(=O)[C@H](CCCNC(=N)N)NC(=O)[C@H](CO)NC(=O)[C@H](C)NC(=O)[C@H](Cc1ccc(O)cc1)NC(=O)[C@H](Cc1c[nH]c2ccccc12)NC(=O)[C@H](C)NC(=O)[C@@H]1CCCN1C(=O)[C@H](CC(N)=O)NC(=O)[C@@H](NC(=O)[C@H](CC(=O)O)NC(=O)[C@@H]1CCCN1C(=O)[C@@H](N)[C@@H](C)O)[C@@H](C)CC)C(=O)N[C@@H](CCCNC(=N)N)C(=O)N1CCC[C@H]1C(=O)N[C@H](C(=O)NCC(=O)N[C@@H](CCCNC(=N)N)C(=O)N[C@@H](Cc1ccccc1)C(N)=O)C(C)C [PrRP20] (H-TPDINPAWYASRGIRPVGRF-NH2)
